Results reported in patent US10293004B2, “Butyrate-producing bacterium and use thereof” (KABUSHIKI KAISHA YAKULT HONSHA, priority 2014, dated 2019).

Test system: mouse C57BL/6J
Assay: Multiple oral dose test of YIT 12355 to mouse given indigestible saccharide
Type: in vivo
Conditions: for Total cell count: DAPI counting method; for Cell count, A. hadrus: quantitative PCR; for Occupancy: cell count of YIT 12355/total cell count ×100; for Detected count: mice with A. hadrus detected / mice in group
Experimental: Mice were acclimatized and raised with F2 feed (manufactured by Funabashi Farm Co., Ltd.) for 1 week and then divided into 6 groups such that the average body weight was almost equal among these groups. Then, a control diet (Table 7) was administered thereto for 1 week and replaced with purified feed containing an indigestible material, which was then administered thereto for 2 weeks. A live cell suspension of YIT 12355 was orally administered twice a week a total of 4 times using a probe. At the final day of the test, each mouse was dissected, and the cecal and colonic contents were recovered and examined for an organic acid concentration. Also, the cell count of YIT 12355 in the intestinal tract contents was measured by quantitative PCR, while change in the whole intestinal flora was examined by use of PCR-DGGE (denaturing gradient gel electrophoresis). • Animal used: mouse C57BL/6J (4 weeks old; CLEA Japan, Inc.) • Test period: 3 weeks • Indigestible saccharide used: lactitol and maltitol • Dose of indigestible saccharide: 5% (w/w) • Administered bacterial strain: YIT 12355 • Dose of bacterium: live cell dose: 3.9 to 6.9×10^8 cfu/mouse (administration of a suspension in physiological saline using a probe). Total cell count including dead cells: […] cfu/mouse • Group configuration: 6 groups (5 mice/group) At the 2nd week of administration of the test feed, each mouse was anesthetized with diethyl ether and euthanized by cervical dislocation. After abdominal section, cecal tissues and colonic tissues were excised to recover their contents. The cecal and colonic contents were diluted 10-fold with PBS and subjected to DNA extraction. DNA was extracted by the bead-phenol method from the 10-fold diluted solution of the intestinal tract contents. Specifically, 0.3 g of glass beads (diameter: 0.1 mm), 300 μL of a Tris-SDS solution (a mixed solution of 250 mL of 200 mM Tris-HCl, 80 mM EDTA, pH 9.0, and 50 mL of 10% SDS) and 500 μL of TE saturated phenol were added to 200 μL of the diluted solution of the intestinal tract contents, and the mixture was vigorously shaken for 30 seconds using FASTPREP FP120 cell disruptive equipment (power level: 5.0). After centrifugation at 15,000 rpm for 5 minutes, 400 μL of a phenol/chloroform/isoamyl alcohol (25:24:1) solution was added to 400 μL of the supernatant, and the mixture was shaken for 45 seconds using FASTPREP FP120 cell disruptive equipment (power level: 4.0). After centrifugation at 15,000 rpm for 5 minutes, 25 μL of 3 M sodium acetate (pH 5.4) and 250 μL of isopropanol were added to 250 μL of the supernatant and mixed therewith. After centrifugation at 15,000 rpm for 5 minutes, the supernatant was removed, and 500 μL of 70% ethanol was added thereto, followed by centrifugation again at 15,000 rpm for 5 minutes. The supernatant was removed, and the pellets were dried and dissolved in 1.0 mL of a TE buffer. The obtained DNA solution was diluted 10-fold with purified water to prepare a template DNA solution. For quantitative PCR, 7500 Real-Time PCR System (manufactured by Life Technologies Corp.) was used. The total volume of the reaction solution was set to 20 μL, and SYBR Premix Ex Taq II (Takara Bio Inc.) containing 1.0 μM each of primers, and the template DNA solution were mixed and then subjected to quantitative PCR. The reaction conditions involved heating at 95° C. for 2 minutes, followed by 40 repetitive cycles each involving reactions at 95° C. for 20 seconds, 55° C. for 20 seconds and 72° C. for 50 seconds, and subsequent reaction at 72° C. for 3 minutes. For subsequent Tm value analysis, after reaction at 60° C. for 1 minute, the temperature was elevated at a temperature gradient of 0.2° C./sec to 95° C. during which the fluorescence of SYBR Green I was measured to measure the dissociation temperature (Tm) of the double strand of the amplification product. […]

## A. hadrus (Eubacterium hadrum) YIT 12355 (NITE BP-01832)
Cecal contents
  Total cell count: 10.9 ± 0.1 log10 cells/g contents
  Occupancy: 0.1 ± 0.1%
  Detected count: (4/5)
Cecal contents, multiple oral dose
  Cell count, A. hadrus: 7.0 ± 1.1 log10 cells/g contents
Colonic contents
  Total cell count: 11.0 ± 0.0 log10 cells/g contents
  Occupancy: 0.1 ± 0.1%
  Detected count: (4/5)
Colonic contents, ND: <lower quantification limit 6.0 log10 (cells/g contents)
  Cell count, A. hadrus: 7.2 ± 1.1 log10 cells/g contents
Summary in words of Table 10
  cell count of A. hadrus in the intestine: largely changes neither
  occupancy of A. hadrus in the intestine: largely changes neither
